Holding throughout (format): cell-based
Test [1] concerns RSV strain A2. As to the kind of experiment: microbe, parasite or virus in culture. The settings on record: read-out: RSV HEp-2 EC50. Put shortly: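 Cytopathic-effect protection assay: HEp-2 cells (50,000/mL) infected with pre-titered RSV A2 onto 3-fold serial compound dilutions, incubated 4 days at 37° C. Cell viability read by CellTiter-Glo luminescence; percent inhibition derived against 0% and 100% virus-inhibition controls.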

For test [2], the system named is DENV2 replicon. As to the kind of experiment: DENV-2 Huh-7 Rep EC50 (replicon luminescence). On the procedure:
In 384 well plates (Greiner, Cat #781091), compounds were acoustically transferred at 200 nl per well in a 8 compound (4 replicates) or 40 compound dose response format (3 replicates). For all plates tested, Balapiravir, GS-5734 and NITD008 were included as positive inhibition controls alongside 0% inhibition, DMSO-only negative control wells. Following compound addition, Huh-7 cells containing the DENV2 replicon construct were harvested following standard cell culture procedures and were adjusted to a concentration of 1.25E5 cells/mL in cell culture media composed of cDMEM without genticin. 40 μL of the cell stock was then added to each well for a final cell density of 5,000 cells/well. Cell and compound mixtures were incubated at 37° C./5% CO2 for 48 hours. Prior to harvesting cells, EnduRen Live Cell Substrate (Promega, Cat #E6481) was prepared by suspending 3.4 mg into 100 uL of DMSO to generate a 60 mM stock solution. The stock solution was then diluted 1:200 in pre-warmed cDMEM and 10 uL of this diluted solution was added to each well of the 384 well plates. Plates were then centrifuged at 500 rpm briefly and were placed on a plate shaker for 2 min. Following mixing, plates were incubated at […] for 1.5 hours prior to measuring luminescence on an Envision luminometer.

Test [3] concerns RSV A2. As to the kind of experiment: RSV NHBE EC50 (RSV A2 antiviral assay in NHBE cells). The settings on record: read-out: RSV NHBE EC50. Put shortly: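 Primary bronchial epithelial cells attach overnight, receive 3-fold serial compound dilutions, and are infected with RSV A2 at 1×10^4.5 tissue culture infectious doses/mL. Protection from virus-induced cell death is scored by luminescent viability assay after 4 days.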

Where [4] appears, read: human respiratory syncytial virus, HEp-2, 96 h, Table 3, HEp-2 cells, RSV A2, 4 days.
Where [5] appears, read: Dengue virus, DENV2, Huh-7, 48 h, read-out: DENV-2 REP Huh7 EC50.
[6] abbreviates: human respiratory syncytial virus, NHBE, 96 h, Table 3, NHBE cells, RSV A2, 4 days.
The mark [7] stands for this setting: Table 3, HEp-2 cells, RSV A2, 4 days.
[8] abbreviates: Table 3, Huh-7 DENV2 replicon cells, 48 hours, read-out: DENV-2 REP Huh7 EC50.
The mark [9] stands for this setting: Table 3, NHBE cells, RSV A2, 4 days.

Here are results for seven compounds from patent US12264173B2 (GILEAD SCIENCES, INC., priority 2020, dated 2025).

Molecules are shown by their SMILES. Read-outs that look alike come from different tables or passages of the source. Some results are limits rather than exact numbers.

For orientation: EC50 means the midpoint of the concentration-response curve. Regarding `CCC(=O)OC1[C@H](c2ccc3c(N)ncnn23)O[C@](C#N)(COP(=O)(N[C@@H](C)C(=O)OCC2CCN(CC(F)(F)F)CC2)Oc2ccccc2)[C@H]1OC(=O)CC` (stereo in doubt) [Example 115, (2R,3S,4R,5S)-5-(4-aminopyrrolo[2,1-f][1,2,4]triazin-7-yl)-2-cyano-2-((((((S)-1-oxo-1-((1-(2,2,2-trifluoroethyl)piperidin-4-yl)methoxy)propan-2-yl)amino)(phenoxy)phosphoryl)oxy)methyl)tetrahydrofuran-3,4-diyl dipropionate], the figures for the EC50 in test [1] (setting [4]), in test [2] (setting [5]) and in test [3] (setting [6]) were 112 nM, 20400 nM and 22 nM, respectively.
Turning to `C[C@H](NP(=O)(OC[C@@]1(C#N)O[C@@H](c2ccc3c(N)ncnn23)[C@H](O)[C@@H]1O)Oc1ccccc1)C(=O)OCC1CCOCC1` (stereo partly drawn) [Example 20, (tetrahydro-2H-pyran-4-yl)methyl ((((2R,3S,4R,5S)-5-(4-aminopyrrolo[2,1-f][1,2,4]triazin-7-yl)-2-cyano-3,4-dihydroxytetrahydrofuran-2-yl)methoxy)(phenoxy)phosphoryl)-L-alaninate], the EC50 in test [1] (human respiratory syncytial virus, HEp-2, Table 5 comparative activity, 2',3'-OH vs -OC(O)iPr) is 877 nM; in test [2] (Dengue virus, DENV2, Huh-7, read-out: DENV Rep EC50) it was more than 50000 nM; in test [3] (human respiratory syncytial virus, NHBE, Table 5 comparative activity, 2',3'-OH vs -OC(O)iPr), 2230 nM.
Take `CCC(CC)COC(=O)[C@H](C)N[P@](=O)(OC[C@@]1(C#N)O[C@@H](c2ccc3c(N)ncnn23)[C@H](OC(C)=O)[C@@H]1OC(C)=O)Oc1ccccc1` [Example 88, (2R,3S,4S,5S)-5-(4-aminopyrrolo[2,1-f][1,2,4]triazin-7-yl)-2-cyano-2-((((S)-(((S)-1-(2-ethylbutoxy)-1-oxopropan-2-yl)amino)(phenoxy)phosphoryl)oxy)methyl) tetrahydrofuran-3,4-diyl diacetate]: the concentration for a half-maximal effect (EC50) is 108 nM in test [1] (setting [4]), 8820 nM in test [2] (setting [5]) and 42 nM in test [3] (setting [6]).
Turning to `CC(=O)O[C@H]1[C@H](c2ccc3c(N)ncnn23)O[C@](C#N)(CO[P@](=O)(N[C@@H](C)C(=O)OCC2CC2)Oc2ccccc2)[C@H]1OC(C)=O` [Example 103], the EC50 came out at 94 nM in test [1] (setting [7]), 10500 nM in test [2] (setting [8]) and 32 nM in test [3] (setting [9]).
For `CC(=O)O[C@H]1[C@H](c2ccc3c(N)ncnn23)O[C@](C#N)(CO[P@@](=O)(N[C@@H](C)C(=O)OCC2CCOCC2)Oc2ccccc2)[C@H]1OC(C)=O` [Example 111], in that order: 873 nM, more than 100000 nM and 44 nM.
Consider `CC(C)OC(=O)[C@H](C)N[P@](=O)(OC[C@@]1(C#N)O[C@@H](c2ccc3c(N)ncnn23)[C@H](OC(=O)C2COC2)[C@@H]1OC(=O)C1COC1)Oc1ccccc1` [Example 160, (2R,3S,4S,5S)-5-(4-aminopyrrolo[2,1-f][1,2,4]triazin-7-yl)-2-cyano-2-((((S)-(((S)-1-isopropoxy-1-oxopropan-2-yl)amino)(phenoxy)phosphoryl)oxy)methyl) tetrahydrofuran-3,4-diyl bis(oxetane-3-carboxylate)], for which the 50% effective concentration (EC50) in test [1] (setting [4]) amounted to 204 nM; in test [2] (setting [5]), 37400 nM; in test [3] (setting [6]), 860 nM.
On the same counts, the results for `CC(C)OC(=O)[C@H](C)NP(=O)(OC[C@@]1(C#N)O[C@@H](c2ccc3c(N)ncnn23)[C@H](OC(=O)C(C)C)[C@@H]1OC(=O)C(C)C)Oc1ccc(C(=O)N(C)C)cc1` (stereo partly drawn) [Example 177, (2R,3S,4S,5S)-5-(4-Aminopyrrolo[2,1-f][1,2,4]triazin-7-yl)-2-cyano-2-((((4-(dimethylcarbamoyl)phenoxy)(((S)-1-isopropoxy-1-oxopropan-2-yl)amino)phosphoryl)oxy)methyl)tetrahydrofuran-3,4-diyl bis(2-methylpropanoate)] are 120 nM, 27200 nM and 49 nM.
